Results published in a melting point compilation (Tetko et al.).

Molecule `CC(Cl)C(=O)N(CCC#N)c1ccccc1` (centres undefined) has a melting point of 74 to 76 °C. In the case of `O=C(O)CCSc1ccccc1Br`, the melting point is reported as 104 to 106 °C. `Nc1ccc(-n2ccnc2)nc1` gave a melting point of 114 to 116 °C. In the case of `N#Cc1cc(N)ccc1N1CCC(O)CC1`, the melting point is reported as 137 to 139 °C. For `Cc1nn(C)c2[nH]nc(N)c12`, the melting point was 135 to 137 °C. In the case of `CNC1(C(N)=O)CCCC1`, the melting point is reported as 99 to 101 °C. `O=[N+]([O-])c1ccc(Cl)cc1S(=O)(=O)Cl` showed a melting point of 67 to 69 °C. For `Cc1ccc(S(=O)(=O)Cl)cc1Br`, the melting point was 69 to 71 °C. For `CCN(CC)c1ccnc(NN)n1`, the melting point was 84 to 86 °C. In the case of `COc1ccc(C2CCCCC2=O)cc1F` (centres undefined), the melting point is reported as 78 to 80 °C. `O=C(O)CSc1nccn1-c1cccc(F)c1` showed a melting point of 140 to 142 °C. `NCC(O)COc1cccc(Cl)c1Cl` (centres undefined) gave a melting point of 110 to 112 °C. `O=C(O)c1ccccc1NCCO` gave a melting point of 142 to 144 °C. Molecule `Cc1cc(C(=O)O)c2c(-c3ccco3)noc2n1` has a melting point of 232 to 234 °C. Molecule `O=Cc1ccc(Oc2cnccn2)cc1` has a melting point of 79 to 81 °C. With `Nc1nc(CN2CCOCC2)cs1` the melting point was 145 to 150 °C. `COc1ccc(S(=O)(=O)Nc2cccnc2)cc1N` gave a melting point of 153 to 155 °C. In the case of `COc1cc(NC(=O)NN)c(OC)cc1Cl`, the melting point is reported as 168 to 170 °C. `CCn1ncc(C(=O)O)c1C(F)(F)F` gave a melting point of 136 to 138 °C. Molecule `N#Cc1cc(N)cnc1N` has a melting point of 129 to 131 °C. Molecule `NC(=S)c1cccnc1N` has a melting point of 124 to 126 °C. `Cc1cccc2[nH]c(CCC(=O)O)nc12` showed a melting point of 238 to 240 °C. In the case of `CC(=O)N1CC(C(=O)O)C1`, the melting point is reported as 149 to 151 °C. `CS(=O)(=O)c1ccc(CCN)cc1` showed a melting point of 76 to 78 °C. With `O=C(O)CNS(=O)(=O)c1ccc2c(c1)nnn2O` the melting point was 229 to 231 °C. Molecule `Nc1nonc1I` has a melting point of 90 to 92 °C. Molecule `CC(=O)CC(=O)Nc1ccc(I)cc1` has a melting point of 142 to 144 °C. Molecule `N#Cc1ccc(-n2cncn2)nc1` has a melting point of 203 to 205 °C. In the case of `COC(=O)N1CCc2n[nH]c(=O)cc2C1`, the melting point is reported as 189 to 191 °C. For `COc1ccc(C(C)CC(=O)O)cc1` (centres undefined), the melting point was 66 to 68 °C. In the case of `CC(=O)N1c2ccccc2C[C@H]1C(=O)O`, the melting point is reported as 194 to 196 °C. For `O=S(=O)(CCCBr)c1ccc(F)cc1`, the melting point was 36 to 38 °C. `Oc1ccc(CNCc2ccco2)cc1` gave a melting point of 107 to 109 °C. `CCOc1ccccc1C(=O)NCC(=O)O` showed a melting point of 166 to 168 °C. Molecule `COc1ncnc(Cl)c1N` has a melting point of 70 to 72 °C. `CC(C)n1cccc1C(=O)Nc1cc(Cl)ccc1C(=O)O` gave a melting point of 226 to 228 °C. Work on `COc1cc2nc(-c3ccccc3)nc(Cl)c2cc1OC` yielded a melting point of 132 to 134 °C. For `O=c1[nH]c2cnccc2n1Cc1ccccc1`, the melting point was 213 to 215 °C. With `CN(c1ccc(O)cc1)S(=O)(=O)c1cccs1` the melting point was 149 to 151 °C. For `Sc1nnc(C2CC2)o1`, the melting point was 131 to 133 °C. Work on `N#Cc1cccc(Cn2ccnc2)c1` yielded a melting point of 65 to 67 °C. With `O=C(O)CC1C=CS(=O)(=O)C1` (centres undefined) the melting point was 81 to 83 °C. In the case of `COc1cc(C=O)ccc1SC`, the melting point is reported as 45 to 47 °C. In the case of `O=C1NC(=O)N(c2ccc3c(c2)OCO3)C1=O`, the melting point is reported as 195 to 197 °C. With `O=C(O)c1ccn(-c2ccccc2[N+](=O)[O-])n1` the melting point was 223 to 225 °C. Work on `CC(C)(C)OC(=O)Nc1ccc(C(F)(F)F)cc1N` yielded a melting point of 140 to 142 °C. With `CC(C)Cc1nnc(N)s1` the melting point was 239 to 241 °C. `NC(=S)c1cccc(NC(=O)C2CC2)c1` showed a melting point of 181 to 183 °C. In the case of `CCc1nc(C)c(C(=O)O)s1`, the melting point is reported as 165 to 167 °C. For `O=C(O)CCCSc1nc2ccccc2[nH]1`, the melting point was 120 to 122 °C. Molecule `O=C(O)C1(N2CCOCC2)CCC1` has a melting point of 209 to 211 °C. Molecule `O/N=C/c1c(Cl)nc(Cl)n1-c1ccccc1` has a melting point of 179 to 181 °C. `CCCC(C)S(N)(=O)=O` (centres undefined) showed a melting point of 48 to 50 °C. For `CNCc1cccc(O)c1`, the melting point was 144 to 146 °C. With `O=C(O)c1cnc(Cc2ccc(F)cc2)s1` the melting point was 178 to 180 °C. With `CCOC(=O)c1sc2ncc(C(=O)OC)cc2c1N` the melting point was 213 to 215 °C. With `CCS(=O)(=O)NC1CCCNC1` (centres undefined) the melting point was 104 to 106 °C. Molecule `CNc1cc(F)ccc1[N+](=O)[O-]` has a melting point of 110 to 112 °C. With `CC(=O)c1cccc(N(S(C)(=O)=O)S(C)(=O)=O)c1` the melting point was 185 to 187 °C. In the case of `CCOc1ccc(NC(C)=O)cc1S(N)(=O)=O`, the melting point is reported as 187 to 189 °C. `COc1cccc(C(=O)c2c(N)sc3c2CCC3)c1` gave a melting point of 127 to 129 °C. Molecule `CSc1nc(Cl)ccc1C(=O)O` has a melting point of 189 to 191 °C. `Ic1ccc(OCc2ccccn2)cc1` showed a melting point of 74 to 76 °C. `Nc1noc(-c2ccsc2)n1` gave a melting point of 196 to 198 °C. For `O=C(O)C1CC(O)CN1C(=O)c1ccc(F)cc1` (centres undefined), the melting point was 206 to 208 °C. For `CC(=O)Nc1ccc(N)c(C(F)(F)F)c1`, the melting point was 118 to 120 °C. For `Cc1cccc(C)c1OCCC(=O)O`, the melting point was 51 to 53 °C. In the case of `O=C(O)c1cc(F)cc2cccnc12`, the melting point is reported as 159 to 161 °C. For `O=C(O)c1cnn(-c2ccc(Cl)nn2)c1C(F)(F)F`, the melting point was 99 to 101 °C. Work on `O=C(O)CCCCCc1cccs1` yielded a melting point of 43 to 45 °C. For `O=C(O)CCN1C(=O)CCc2cc(F)ccc21`, the melting point was 149 to 151 °C. `NC(=NO)c1cccs1` showed a melting point of 81 to 83 °C. For `O=C(O)c1nccnc1C(=O)Nc1ccc(Cl)cc1`, the melting point was 178 to 180 °C. `CCOc1ccc(OCC2CO2)cc1` (centres undefined) showed a melting point of 53 to 55 °C.
